# Laboratory results reported in patent US5997843A, “Radiometal complexes that localise in hypoxic tissue” (priority 1993, dated 1999).
# Columns and labels:
# [1] = test system: isolated (Langendorff) rat hearts; assay: Isolated perfused heart (Langendorff), hypoxic vs oxic uptake/retention; conditions: for Hypoxic/Oxic Ratio (H/O): ^99m Tc complex (or ^123 I-IAZA), 20 min infusion, 15 min washout; for Normalised Hypoxic Retention: relative to ^3 H-misonidazole activity
# Protocol: A 15-minute cold buffer washout period follows. y activity in the heart is monitored using a collimated NaI probe detector positioned over the heart.
# Activity in hearts, relative to perfusate activity, is calculated for each nuclide and data evaluated for each compound for activity in hypoxic and oxic hearts (hypoxic:oxic ratio) and also relative to the 3 H-misonidazole activity (normalised retention) using Formula 1. [formula] Results
# [2] = Biodistribution in rats; format: in vivo, male rats; conditions: i.v.
# Protocol: Biodistribution in Rats--Methods
# The quantitative biodistribution was studied in male rats at 2 minutes, 1 hour and 4 hours post-injection
# Rats under light anaesthesia were injected intravenously with 0.1 ml of test agent. Three rats were sacrificed (anaesthesia followed by exsanguination) at 2, 60 and 240 minutes, post-injection. The percentage of the injected dose in the excreta and organs and tissues was determined by dissection and assay for radioactivity in an automatic gamma counter.
# [3] = 2 min post-injection, ^99m Tc complex
# [4] = 240 min post-injection (third printed value)
# [5] = second of two values, 60 or 240 min not assignable
Structure (SMILES),Hypoxic/Oxic Ratio (H/O) [1],Normalised Hypoxic Retention [1],Bladder/Urine ([2]; 2 min post-injection) [percent injected dose],Blood ([2]; 2 min post-injection) [percent injected dose],Gut ([2]; 2 min post-injection) [percent injected dose],Kidney ([2]; 2 min post-injection) [percent injected dose],Liver ([2]; 2 min post-injection) [percent injected dose],"Muscle [2, 3] [percent injected dose]",Gut ([2]; 60 min post-injection) [percent injected dose],Muscle ([2]; 60 min post-injection) [percent injected dose],"Muscle [2, 4] [percent injected dose]",Gut ([2]; 240 min post-injection) [percent injected dose],"Blood [2, 5] [percent injected dose]","Kidney [2, 5] [percent injected dose]","Liver [2, 5] [percent injected dose]",hypoxia selectivity / hypoxic/oxic ratio / hypoxic retention (in words) [1]
"O=[N+]([O-])c1nccn1[C@H]1O[C@H](C[123I])[C@@H](O)[C@@H]1O [^123 I-IAZA, ^123 I-iodoazomycin arabinoside, reference compound]",10,2.7,–,–,–,–,–,–,–,–,–,–,–,–,–,–
"CCC(=NO)C(C)(C)NCCCCNC(C)(C)C=NO [Compound VII, 3,8-diaza-10-(hydroxyimino)-2,2,9,9-tetramethyl dodecanal oxime]",8.8,1.5,0.8,11.8,12.1,9.8,12.9,25.6,23.2,9.2,7.5,31.3,3.0,3.4,11.6,–
"COCC(=NO)C(C)(COC)NCCCCNC(C)(COC)C(COC)=NO (stereo not drawn) [Compound XV, 3,10-Bis(methoxymethyl)-4,9-diaza-1,12-dimethoxy-3,10-dimethyldodecan-2,11-dione dioxime]",1.2,1.4,1.2,12.8,9.5,14.2,10.2,27.4,21.3,5.7,1.9,32.1,1.7,6.2,6.3,–
"CC(C)(NCCCCNC(C)(C)C(Cn1ccnc1[N+](=O)[O-])=NO)C(Cn1ccnc1[N+](=O)[O-])=NO [Compound XI, 1,12-bis(2-Nitro-1-imidazolyl)-4,9-diaza-3,3,10,10-tetramethyldodecan-2,11-dione dioxime]",3.4,0.98,0.2,10.8,18.2,8.6,21.7,18.7,56.7,5.6,3.1,66.0,1.4,2.1,7.3,further reduces the hypoxia selectivity
"CC(=NO)C(C)NCCCCNC(C)C(C)=NO (stereo not drawn) [Compound XIII, 4,9-Diaza-3,10-dimethyldodecan-2,11-dione dioxime]",–,–,1.1,9.8,11.4,8.8,18.4,25.7,23.0,10.1,7.1,25.6,5.0,8.8,20.4,–
"CC(=NO)C(C)(C)NCCCCCNC(C)(C)C(C)=NO [Compound III, 4,10-diaza-3,3,11,11-tetramethyltridecan-2,12-dione dioxime]",–,–,0.2,18.1,8.2,11.3,9.7,26.9,25.0,10.1,3.3,35.6,1.1,4.2,5.4,–
"CCC(=NO)C(C)(C)NCCCCNC(C)(C)C(CC)=NO [Compound VIII, 5,10-diaza-4,4,11,11-tetramethyltetradecan-3,12-dione dioxime]",34,2.2,0.6,9.0,13.9,7.8,13.6,29.7,36.2,7.4,2.4,46.7,1.8,2.5,13.1,–
"CCC(=NO)C(C)(C)NCCCCNC(C)(C)C(C)=NO [Compound IX, 4,9-diaza-3,3,10,10-tetramethyltridecan-2,11-dione dioxime]",8.4,2.1,0.8,10.1,13.8,7.7,12.9,32.1,31.6,8.3,3.0,37.7,2.0,2.2,11.2,–
"CC(C)(C=NO)NCCCCNC(C)(C)C(Cn1ccnc1[N+](=O)[O-])=NO [Compound XII, 3,8-diaza-10-hydroxyimino-11-(2-nitro-1-imidazolyl)-2,2,9,9-tetramethylundecanal oxime]",9.5,1.9,1.2,10.8,13.4,13.3,16.0,23.9,31.9,8.2,5.2,35.5,2.0,5.5,11.0,little or no effect on both the hypoxic/oxic ratio and normalised hypoxic retention
"COC(=O)C(CCCNC(C)(C)C(C)=NO)NC(C)(C)C(C)=NO (stereo not drawn) [Compound XVI, 4,9-diaza-3,3,10,10-tetramethyldodecan-2,11-dione dioxime-8-carboxylic acid methyl ester]",4.0,0.22,0.3,17.8,6.3,13.8,4.4,24.4,6.5,3.7,2.3,12.4,3.1,7.6,2.5,–
"CC(C)(C=NO)NCCCCNC(C)(C)C=NO [Compound VI, 3,8-diaza-2,2,9,9-tetramethyldecan-1,10-dial dioxime]",3.2,0.67,0.6,13.5,8.6,12.5,12.2,24.8,16.3,13.4,10.0,21.2,5.3,10.4,13.7,–
